Holding throughout (format): biochemical
The target in experiment [1] is T1, CYP3A4 (Homo sapiens, UniProt P08684). Briefly: Determination of IC50 against CYP3A4 by measurement of inhibition of testosterone metabolism (human liver microsomes, 6-β-OH-testosterone by LC-MS/MS). The arrangement: 0.1 mg/mL human liver microsomes. The following applies: read-out: IC50 (Testo.). The essentials: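 Human liver microsomes (0.1 mg/mL) incubated with 25 μM testosterone and 1 mM NADPH in 100 mM potassium phosphate, pH 7.4, for eight minutes. 6-β-OH-testosterone measured by LC-MS/MS in MRM mode against an internal standard and quantified from a metabolite standard curve.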
(Microsomes from liver hold many membrane-bound enzymes, among them those of drug oxidation.)

The target of experiment [2] is T1, CYP3A4. Briefly: Determination of compound Kiapp against recombinant CYP3A4 enzyme (BFC fluorescent substrate). Summed up:
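Recombinant CYP3A4 (5.5 or 8 nM, with or without b5 depending on source) pre-incubated with inhibitor ≥30 min at room temperature in 100 mM sodium phosphate pH 7.0, 5 mM TCEP, 2% DMF. Reaction started with 200 uM NADPH and 5 uM BFC; initial fluorescence rates over 5 min fitted to Morrison tight-binding (non-partial) or Szedlacsek (partial) equations for Kiapp.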

For experiment [3], the target named is T1, CYP3A4. Briefly: Determination of IC50 against CYP3A4 by measurement of inhibition of midazolam metabolism (human liver microsomes, 1-hydroxymidazolam by LC-MS/MS). Also noted: 0.1 mg/mL human liver microsomes. Conditions: 2 μM midazolam, 0.1 mg/mL human liver microsomes. The essentials:
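Human liver microsomes (0.1 mg/mL) incubated 8 min with 2 μM midazolam and 1 mM NADPH in 100 mM potassium phosphate, pH 7.4. 1-Hydroxymidazolam quantified by LC-MS/MS (MRM) as peak area ratio to internal standard against a metabolite standard curve.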

[4] abbreviates: Baculo. enzyme preparation, read-out: Kiapp (BFC, Baculo.).
[5] abbreviates: Super. enzyme preparation, read-out: Kiapp (BFC, Super.).

The values that follow come from patent US7868026B2, “Therapeutic compounds” (Pfizer Inc., priority 2005, dated 2011).

The term IC50 denotes the concentration that inhibits the measured activity by half.

Structures are written as SMILES. Like-named read-outs stand apart in the source and are kept apart here.

T1 sequence (P08684 whole entry): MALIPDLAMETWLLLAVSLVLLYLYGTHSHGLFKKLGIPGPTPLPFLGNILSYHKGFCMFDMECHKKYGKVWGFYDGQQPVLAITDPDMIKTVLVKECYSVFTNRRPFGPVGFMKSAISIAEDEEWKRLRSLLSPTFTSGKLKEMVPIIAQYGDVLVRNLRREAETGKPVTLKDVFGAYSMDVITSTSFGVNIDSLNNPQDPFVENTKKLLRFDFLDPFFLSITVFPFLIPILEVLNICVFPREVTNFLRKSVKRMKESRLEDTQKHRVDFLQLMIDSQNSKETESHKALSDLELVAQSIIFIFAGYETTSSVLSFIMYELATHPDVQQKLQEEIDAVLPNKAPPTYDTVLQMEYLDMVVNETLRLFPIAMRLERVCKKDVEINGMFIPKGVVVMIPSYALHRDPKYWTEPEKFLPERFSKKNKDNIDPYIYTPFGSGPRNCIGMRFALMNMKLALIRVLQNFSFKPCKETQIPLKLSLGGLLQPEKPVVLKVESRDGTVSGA

On to `CCCCN(C)C(=O)c1ccccc1S(=O)(=O)Nc1cnccc1OC` [Example 280, N-butyl-2-{[(4-methoxypyridin-3-yl)amino]sulfonyl}-N-methylbenzamide], for which the half-maximal inhibitory concentration (IC50) at CYP3A4 [1] was 95 nM; at CYP3A4 [3], 39 nM. Also, the results for the Ki on CYP3A4 [2] (setting [4]) and at CYP3A4 [2] (setting [5]) were 400 nM and 52.5 nM, respectively.

Regarding `CCOc1ccncc1NS(=O)(=O)c1ccccc1C(=O)N(C)CCOC` [Example 160, 2-{[(4-ethoxypyridin-3-yl)amino]sulfonyl}-N-(2-methoxyethyl)-N-methylbenzamide], the results for the IC50 at CYP3A4 [1] and at CYP3A4 [3] were 202 nM and 129 nM, respectively. For the same molecule, the Ki on CYP3A4 [2] (setting [4]) was greater than 1000 nM; at CYP3A4 [2] (setting [5]), 163 nM.

For `COC1CCN(C(=O)c2ccccc2S(=O)(=O)Nc2cccnc2)CC1` [Example 26, 2-[(4-methoxypiperidin-1-yl)carbonyl]-N-pyridin-3-ylbenzenesulfonamide], the IC50 at CYP3A4 [1] was 691 nM; on CYP3A4 [3], 494 nM. For the same molecule, the Ki at CYP3A4 [2] (setting [4]) is greater than 1000 nM.

Turning to `COc1cncc(NS(=O)(=O)c2ccccc2C(=O)NCCc2ccccc2Cl)c1` [Example 240, N-[2-(2-chlorophenyl)ethyl]-2-{[(5-methoxypyridin-3-yl)amino]sulfonyl}benzamide], the values for the IC50 on CYP3A4 [1] and at CYP3A4 [3] were 9 nM and 4 nM, respectively. For the same molecule, the Ki on CYP3A4 [2] (setting [4]) was determined as 22 nM; at CYP3A4 [2] (setting [5]) it was 3.2 nM.

`COc1cncc(NS(=O)(=O)c2ccccc2C(=O)N2CCC(C)CC2)c1` [Example 389, N-(5-methoxypyridin-3-yl)-2-[(4-methylpiperidin-1-yl)carbonyl]benzenesulfonamide]: the IC50 at CYP3A4 [1] amounted to 57 nM; at CYP3A4 [3], 24 nM. Further, the figures for the Ki on CYP3A4 [2] (setting [4]) and at CYP3A4 [2] (setting [5]) were 241 nM and 2.81 nM, respectively.

As to `COc1cncc(NS(=O)(=O)c2ccc(F)cc2C(=O)N(C)C(C)C)c1` [Example 304, 5-fluoro-N-isopropyl-2-{[(5-methoxypyridin-3-yl)amino]sulfonyl}-N-methylbenzamide], the results for the IC50 on CYP3A4 [1] and at CYP3A4 [3] were greater than 750 nM and 119 nM, respectively. The Ki on CYP3A4 [2] (setting [4]) was 536 nM; on CYP3A4 [2] (setting [5]), 171 nM.

Consider `O=C(NCc1ccccc1)c1ccccc1S(=O)(=O)Nc1cccnc1` [Example 12, N benzyl-2-[(pyridin-3-ylamino)sulfonyl]benzamide], for which the IC50 stood at 29 nM at CYP3A4 [1] and 31 nM at CYP3A4 [3]. For the same molecule, the Ki came to 270 nM at CYP3A4 [2] (setting [4]) and 10.5 nM at CYP3A4 [2] (setting [5]).

For the molecule `CCOc1cncc(NS(=O)(=O)c2ccccc2C(=O)N2CCOCC2)c1` [Example 305, N-(5-ethoxypyridin-3-yl)-2-(morpholin-4-ylcarbonyl)benzenesulfonamide], the half-inhibitory concentration (IC50) on CYP3A4 [1] is greater than 750 nM; on CYP3A4 [3], 347 nM. The Ki at CYP3A4 [2] (setting [4]) worked out at 753 nM; at CYP3A4 [2] (setting [5]) it was 270 nM.

As to `COc1cncc(NS(=O)(=O)c2ccccc2C(=O)NCCc2cccc(Cl)c2)c1` [Example 152, N-[2-(3-chlorophenyl)ethyl]-2-{[(5-methoxypyridin-3-yl)amino]sulfonyl}benzamide], the IC50 came out at 23 nM on CYP3A4 [1] and 13 nM on CYP3A4 [3]. Besides, the values for the Ki on CYP3A4 [2] (setting [4]) and on CYP3A4 [2] (setting [5]) were 46.1 nM and 6.4 nM, respectively.

With `CC1CC(C)CN(C(=O)c2ccccc2S(=O)(=O)Nc2cccnc2)C1` (centres unmarked) [Example 25, 2-[(3,5-dimethylpiperidin-1-yl)carbonyl]-N-pyridin-3-ylbenzenesulfonamide], the IC50 was 77 nM on CYP3A4 [1] and 45 nM at CYP3A4 [3]. Also, on CYP3A4 [2] (setting [4]), the Ki was 239 nM.

As for `COc1ccncc1NS(=O)(=O)c1ccccc1C(=O)NC(C)C1CC1` (centres unmarked) [Example 276, N-(1-cyclopropylethyl)-2-{[(4-methoxypyridin-3-yl)amino]sulfonyl}benzamide], the figures for the IC50 on CYP3A4 [1] and on CYP3A4 [3] were 134 nM and 71 nM, respectively. The Ki on CYP3A4 [2] (setting [4]) came out at 563 nM; at CYP3A4 [2] (setting [5]), 62.9 nM.

As for `COc1cncc(NS(=O)(=O)c2ccccc2C(=O)N2CCOC(c3c(F)cccc3F)C2)c1` (centres unmarked) [Example 196, 2-{[2-(2,6-difluorophenyl)morpholin-4-yl]carbonyl}-N-(5-methoxypyridin-3-yl)benzenesulfonamide], the figures for the IC50 at CYP3A4 [1] and on CYP3A4 [3] were 58 nM and 51 nM, respectively. For the same molecule, the Ki at CYP3A4 [2] (setting [4]) is 379 nM; at CYP3A4 [2] (setting [5]) it was 74.5 nM.

Regarding `Cc1cncc(NS(=O)(=O)c2ccccc2C(=O)NCCc2ccccc2OC(F)(F)F)c1` [Example 225, 2-{[(5-methylpyridin-3-yl)amino]sulfonyl}-N-{2-[2-(trifluoromethoxy)phenyl]ethyl}benzamide], the figures for the IC50 on CYP3A4 [1] and at CYP3A4 [3] were 9 nM and 7 nM, respectively. For the same molecule, the Ki turned out to be 15.7 nM at CYP3A4 [2] (setting [4]) and 1.7 nM at CYP3A4 [2] (setting [5]).

On to `O=C(c1ccccc1S(=O)(=O)Nc1cccnc1)N1CCN(c2ccccn2)CC1` [Example 62, N-pyridin-3-yl-2-[(4-pyridin-2-ylpiperazin-1-yl)carbonyl]benzenesulfonamide], for which the IC50 was 211 nM on CYP3A4 [1] and 184 nM on CYP3A4 [3]. The Ki at CYP3A4 [2] (setting [4]) was greater than 1000 nM; at CYP3A4 [2] (setting [5]), 83.3 nM.

Turning to `CCCCN(C)C(=O)c1ccccc1S(=O)(=O)Nc1cncc(C)c1` [Example 352, N-butyl-N-methyl-2-{[(5-methylpyridin-3-yl)amino]sulfonyl}benzamide], the IC50 on CYP3A4 [1] was 31 nM; on CYP3A4 [3], 16 nM. The Ki at CYP3A4 [2] (setting [4]) came to 70.4 nM; on CYP3A4 [2] (setting [5]), 22.6 nM.

In the case of `O=C(NCc1ccc2c(c1)CCO2)c1ccccc1S(=O)(=O)Nc1cccnc1` [Example 82, N-(2,3-dihydro-1-benzofuran-5-ylmethyl)-2-[(pyridin-3-ylamino)sulfonyl]benzamide], the IC50 at CYP3A4 [1] is 25 nM; on CYP3A4 [3], 28 nM. Besides, the results for the Ki at CYP3A4 [2] (setting [4]) and at CYP3A4 [2] (setting [5]) were 743 nM and 20.9 nM, respectively.

For the molecule `Cc1cncc(NS(=O)(=O)c2ccccc2C(=O)NCc2cccc(F)c2)c1` [Example 342, N-(3-fluorobenzyl)-2-{[(5-methylpyridin-3-yl)amino]sulfonyl}benzamide], the figures for the concentration for half-maximal inhibition (IC50) on CYP3A4 [1] and on CYP3A4 [3] were 15 nM and 11 nM, respectively. The Ki amounted to 63 nM on CYP3A4 [2] (setting [4]) and 13.1 nM at CYP3A4 [2] (setting [5]).

As for `COCCNC(=O)c1ccccc1S(=O)(=O)Nc1cccnc1` [Example 261, N-(2-methoxyethyl)-2-[(pyridin-3-ylamino)sulfonyl]benzamide], the values for the IC50 on CYP3A4 [1] and at CYP3A4 [3] were 627 nM and 256 nM, respectively. In addition, the Ki at CYP3A4 [2] (setting [4]) is greater than 1000 nM; on CYP3A4 [2] (setting [5]), 453 nM.

`COc1cncc(NS(=O)(=O)c2ccccc2C(=O)N(C)Cc2ccccc2)c1` [Example 372, N-benzyl-2-{[(5-methoxypyridin-3-yl)amino]sulfonyl}-N-methylbenzamide]: the IC50 came out at 23 nM on CYP3A4 [1] and 15 nM at CYP3A4 [3]. Besides, the Ki was 79 nM on CYP3A4 [2] (setting [4]) and 18 nM at CYP3A4 [2] (setting [5]).

On to `CCCCCN(C)C(=O)c1ccccc1S(=O)(=O)Nc1cnccc1OC` [Example 278, 2-{[(4-methoxypyridin-3-yl)amino]sulfonyl}-N-methyl-N-pentylbenzamide], for which the half-maximal inhibitory concentration (IC50) at CYP3A4 [1] was found to be 66 nM; at CYP3A4 [3] it was 31 nM. In addition, the Ki at CYP3A4 [2] (setting [4]) was 131 nM; on CYP3A4 [2] (setting [5]), 11.9 nM.

For `COc1cncc(NS(=O)(=O)c2ccc(OCCN3CCOCC3)cc2C(=O)N(C)C(C)C)c1` [Example 247, N-isopropyl-2-{[(5-methoxypyridin-3-yl)amino]sulfonyl}-N-methyl-5-(2-morpholin-4-ylethoxy)benzamide], the IC50 turned out to be 108 nM at CYP3A4 [1] and 54 nM on CYP3A4 [3]. In addition, the Ki on CYP3A4 [2] (setting [4]) came to 48.4 nM; at CYP3A4 [2] (setting [5]) it was 88.9 nM.

On to `COc1cncc(NS(=O)(=O)c2ccc(OCCCN(C)C)cc2C(=O)NCc2ccc(F)cc2)c1` [Example 266, 5-[3-(dimethylamino)propoxy]-N-(4-fluorobenzyl)-2-{[(5-methoxypyridin-3-yl)amino]sulfonyl}benzamide], for which the values for the IC50 on CYP3A4 [1] and at CYP3A4 [3] were 109 nM and 54 nM, respectively. For the same molecule, the Ki on CYP3A4 [2] (setting [4]) stood at 145 nM; on CYP3A4 [2] (setting [5]), 26.8 nM.

For the molecule `Cc1ccncc1NS(=O)(=O)c1ccccc1C(=O)NCc1ccc(F)c(F)c1` [Example 259, N-(3,4-difluorobenzyl)-2-{[(4-methylpyridin-3-yl)amino]sulfonyl}benzamide], the IC50 on CYP3A4 [1] and at CYP3A4 [3] was 15 nM each time. The Ki on CYP3A4 [2] (setting [4]) amounted to 135 nM; on CYP3A4 [2] (setting [5]), 12.5 nM.

In the case of `Cc1cncc(NS(=O)(=O)c2ccccc2C(=O)N(C)Cc2cccc(F)c2)c1` [Example 349, N-(3-fluorobenzyl)-N-methyl-2-{[(5-methylpyridin-3-yl)amino]sulfonyl}benzamide], the IC50 on CYP3A4 [1] amounted to 25 nM; at CYP3A4 [3] it was 11 nM. In addition, the Ki is 56.4 nM on CYP3A4 [2] (setting [4]) and 7.4 nM at CYP3A4 [2] (setting [5]).

Turning to `COCCN(C)C(=O)c1ccccc1S(=O)(=O)Nc1cnccc1C` [Example 170, N-(2-methoxyethyl)-N-methyl-2-{[(4-methylpyridin-3-yl)amino]sulfonyl}benzamide], the IC50 was found to be 285 nM at CYP3A4 [1] and 557 nM at CYP3A4 [3]. Further, the Ki was greater than 1000 nM at CYP3A4 [2] (setting [4]) and 427 nM at CYP3A4 [2] (setting [5]).

In the case of `CCCCNC(=O)c1ccccc1S(=O)(=O)Nc1cncc(C#N)c1` [Example 24, N-butyl-2-{[(5-cyanopyridin-3-yl)amino]sulfonyl}benzamide], the values for the IC50 at CYP3A4 [1] and on CYP3A4 [3] were greater than 750 nM and 567 nM, respectively. The Ki on CYP3A4 [2] (setting [4]) was greater than 1000 nM.
